# Tests used:
# [1] = target: T1, Mineralocorticoid receptor (Homo sapiens, UniProt P08235); experiment: Agonist activity at mineralocorticoid receptor (unknown origin) transfected in green monkey CV-1 cells co-transfected with NHR responsive luciferase reporter incubated for 18 hrs by luciferase assay; format: cell-based
# T1 sequence (P08235 whole entry): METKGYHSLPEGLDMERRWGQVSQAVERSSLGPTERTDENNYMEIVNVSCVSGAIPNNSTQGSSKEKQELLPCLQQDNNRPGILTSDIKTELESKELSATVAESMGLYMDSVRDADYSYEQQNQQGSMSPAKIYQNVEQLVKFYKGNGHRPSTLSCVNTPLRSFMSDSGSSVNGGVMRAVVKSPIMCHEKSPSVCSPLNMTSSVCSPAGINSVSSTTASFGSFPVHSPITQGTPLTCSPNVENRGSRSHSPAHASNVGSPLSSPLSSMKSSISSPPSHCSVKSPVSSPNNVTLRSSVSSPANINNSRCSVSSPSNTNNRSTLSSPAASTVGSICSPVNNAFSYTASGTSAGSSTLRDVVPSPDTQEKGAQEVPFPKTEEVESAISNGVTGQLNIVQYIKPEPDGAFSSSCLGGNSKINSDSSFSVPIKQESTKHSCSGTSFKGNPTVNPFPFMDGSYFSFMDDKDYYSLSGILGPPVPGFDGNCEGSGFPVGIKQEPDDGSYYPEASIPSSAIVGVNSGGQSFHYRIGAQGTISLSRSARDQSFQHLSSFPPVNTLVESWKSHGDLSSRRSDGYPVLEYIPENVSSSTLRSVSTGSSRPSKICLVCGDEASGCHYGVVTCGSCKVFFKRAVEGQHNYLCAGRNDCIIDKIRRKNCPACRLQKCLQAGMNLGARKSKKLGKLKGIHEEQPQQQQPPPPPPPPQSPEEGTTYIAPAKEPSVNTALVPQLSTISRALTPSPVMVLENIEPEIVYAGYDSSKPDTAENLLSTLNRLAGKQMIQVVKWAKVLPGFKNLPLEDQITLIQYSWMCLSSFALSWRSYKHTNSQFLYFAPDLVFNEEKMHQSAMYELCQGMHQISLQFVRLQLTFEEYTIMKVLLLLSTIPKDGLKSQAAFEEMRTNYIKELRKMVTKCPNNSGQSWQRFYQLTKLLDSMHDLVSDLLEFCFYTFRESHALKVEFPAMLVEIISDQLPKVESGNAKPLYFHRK
# [2] = target: T2, Retinoic acid receptor alpha (Homo sapiens, UniProt P10276); experiment: Agonist activity at RARalpha (unknown origin) transfected in green monkey CV-1 cells co-transfected with NHR responsive luciferase reporter incubated for 18 hrs by luciferase assay; format: cell-based
# T2 sequence (P10276 whole entry): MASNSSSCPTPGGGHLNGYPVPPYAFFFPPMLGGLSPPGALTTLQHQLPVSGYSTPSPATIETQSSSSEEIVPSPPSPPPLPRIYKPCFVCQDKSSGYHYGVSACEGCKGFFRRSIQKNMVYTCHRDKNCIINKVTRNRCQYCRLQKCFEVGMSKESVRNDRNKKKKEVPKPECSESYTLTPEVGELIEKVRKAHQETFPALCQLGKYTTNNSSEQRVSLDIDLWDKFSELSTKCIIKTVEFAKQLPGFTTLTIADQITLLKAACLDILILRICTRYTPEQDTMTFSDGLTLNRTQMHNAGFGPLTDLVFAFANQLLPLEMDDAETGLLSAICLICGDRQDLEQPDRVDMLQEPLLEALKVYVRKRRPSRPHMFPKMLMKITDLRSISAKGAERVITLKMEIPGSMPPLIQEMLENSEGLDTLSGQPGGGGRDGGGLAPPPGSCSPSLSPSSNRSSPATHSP
# Bile acid receptor = target: T3, Bile acid receptor (Homo sapiens, UniProt Q96RI1); experiment: Agonist activity at FXR-LBD (unknown origin) incubated for 3 hrs in presence of fluorescein-coactivator peptide by TR-FRET analysis
# T3 sequence (Q96RI1 whole entry): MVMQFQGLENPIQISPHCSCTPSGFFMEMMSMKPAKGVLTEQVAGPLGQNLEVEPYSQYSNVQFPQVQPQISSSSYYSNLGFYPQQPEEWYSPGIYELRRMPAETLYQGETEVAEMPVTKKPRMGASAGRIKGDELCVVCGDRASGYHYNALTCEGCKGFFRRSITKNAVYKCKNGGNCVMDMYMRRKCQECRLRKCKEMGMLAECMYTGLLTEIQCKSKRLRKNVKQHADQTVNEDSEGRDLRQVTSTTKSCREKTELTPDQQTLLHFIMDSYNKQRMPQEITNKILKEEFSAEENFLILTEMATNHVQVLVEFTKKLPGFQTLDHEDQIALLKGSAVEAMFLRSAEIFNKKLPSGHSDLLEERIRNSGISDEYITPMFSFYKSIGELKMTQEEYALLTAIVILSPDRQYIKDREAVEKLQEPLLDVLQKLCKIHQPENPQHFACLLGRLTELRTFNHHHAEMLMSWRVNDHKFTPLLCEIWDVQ
# [3] = target: T4, Retinoic acid receptor gamma (Homo sapiens, UniProt P13631); experiment: Agonist activity at RARgamma (unknown origin) transfected in green monkey CV-1 cells co-transfected with NHR responsive luciferase reporter incubated for 18 hrs by luciferase assay; format: cell-based
# T4 sequence (P13631 whole entry): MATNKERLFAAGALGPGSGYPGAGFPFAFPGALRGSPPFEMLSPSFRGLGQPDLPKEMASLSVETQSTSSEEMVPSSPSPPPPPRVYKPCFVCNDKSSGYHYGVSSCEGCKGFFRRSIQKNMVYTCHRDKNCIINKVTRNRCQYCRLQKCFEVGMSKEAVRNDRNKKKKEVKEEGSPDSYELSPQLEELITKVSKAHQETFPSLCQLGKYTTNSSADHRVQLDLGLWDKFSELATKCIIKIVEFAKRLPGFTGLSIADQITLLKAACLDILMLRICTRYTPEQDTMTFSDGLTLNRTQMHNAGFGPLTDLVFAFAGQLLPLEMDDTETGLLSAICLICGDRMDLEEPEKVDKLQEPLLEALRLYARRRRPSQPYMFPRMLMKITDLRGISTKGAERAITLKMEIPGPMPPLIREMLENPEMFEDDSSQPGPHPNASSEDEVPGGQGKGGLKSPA
compound,measurement,setting,value
O=C(O)c1ccc(-c2ccc(OCc3c(-c4c(Cl)cccc4Cl)noc3C3CC3)cc2)cc1,EC50,[1],> 10 µM
same,EC50,[2],> 10 µM
same,EC50,Bile acid receptor,0.052 µM
same,EC50,[3],> 10 µM
